# Laboratory results reported in patent US9084779B2, “Conjugates of nitroimidazoles and their use as chemotherapeutic agents” (The Johns Hopkins University, priority 2011, dated 2015).
# Tests used:
# [1] = system: HT29 human colorectal carcinoma cells; experiment: Cell viability by plating efficiency (colony formation after replating); assay type: cell-based; conditions: 40 μM, 48 h, diluted 10,000 fold and replated, colonies stained eight days later
# Procedure: FIG. 6 depicts the plating efficiency of HT29 human colorectal carcinoma cells after treatment with DMSO, 40μ M3n and 40μ M3N-PEG-2NI. HT29 cells were treated for 48 h with 40 μM M3N, 40 μM M3N-PEG-2NI or the DMSO vehicle. At the end of the treatment period, the cells were diluted 10,000 fold and replated. Eight days later colonies were stained with methylene blue.
# For the further assessment of cell viability by plating efficiency, cells (2×10^6 cells/100 mm dish) from the human colorectal carcinoma cell line HT29 were treated for 48 hours with 40 μM M3N, 40 μM M3N-PEG-2NI or the DMSO vehicle. At the end of the treatment period, the cells from each dish were released by trypsinization, diluted 10,000 fold and replated into new 100 mm dishes. Eight days later colonies were stained with 0.25% methylene blue in 50% ethanol
# [2] = Determination of water solubility by UV absorbance of a saturated solution; assay type: physicochemical; conditions: thermodynamic from solid; water, saturated solution, sonicated at 25° C., stirred at room temperature 1.0 h, filtered
# Procedure: The aqueous solubility of all eight compounds was assessed by using a technique involving measurement of their UV absorbance^29.
# Determination of Water Solubility of Compounds 7a-d and 10a-d. A saturated solution was prepared by addition of a test compound (7a-d and 10a-d; ca. 1.00 mg) to water (1.00 mL), which was sonicated at 25° C. for 5.0 min and stirring at room temperature for an additional 1.0 h. After filtration with Millipore filters (0.45-μm-pore-size polyvinylidene fluoride), the supernatant was analyzed by UV spectroscopy with concentration determined from absorbance, standardized against calibration data. Standard curves for each compound were obtained by plotting absorbance against concentration. The concentration range of the standard solutions was 1.0-10 μg/mL. For all standards, their curves were linear with γ>0.996.
# [3] = system: orthotopic HT29 tumor implants; experiment: Orthotopic xenograft of HT29 human colorectal carcinoma in nude mice, systemic treatment; assay type: in vivo, nude (Nu/Nu) mice
# Procedure: Orthotopic Xenograft implantation of HT29 human colorectal carcinoma cells into nude mice. HT29 cells were grown in culture in McCoy's medium until sub-confluent. A single cell suspension of HT29 was then prepared in HBSS and 1×10^7 cells were injected subcutaneously into the flanks of four male T-cell deficient nude (Nu/Nu) mice. Subcutaneous tumors were allowed to grow for 14 days before harvesting and preparation for orthotopic implantation. The mice were euthanized and the subcutaneous tumors were removed using sterile technique. The tumors were divided into 3×3 mm pieces that were kept in phosphate buffered saline (PBS) on ice. T-cell deficient nude (NU/NU) mice (6 male, 5 female) were anesthetized by injecting 0.5 to 1.0 mL of Avertin (20 mM) intraperitoneally in PBS. The abdomen was prepped with 70% ethanol three times and a small nick was made in the skin. The abdominal wall musculature was grasped, lifted, and entered with a single blade of scissors. The single blade of the scissors was used to push the contents of the abdominal cavity away and the incision was extended 2-3 cm. The cecum was identified by its blind ending pouch and exteriorized. The cecum was isolated from the rest of the mouse using pre-cut, sterile gauze and kept moist with warm PBS. A figure of 8 stitches was placed onto the cecum using a 7-0 sized suture and the cecal wall was slightly damaged at the site where the HT29 tumor piece is to be implanted using forceps. An HT29 tumor piece was positioned on the cecum under the stitch and the stitch was then tied. The cecum was returned to the abdominal cavity. Using staples, the mouse abdominal wall musculature and skin was closed and the mouse was allowed to recover from anesthesia.
# Systemic treatment with M3N-PEG-2NI (compound 7d). A 40 mM stock solution of M3N-PEG-2NI was prepared by dissolving 0.14 g of M3N-PEG-2NI (MW=616.3 g/mol) in 5.7 mL of CPE. Each day of treatment, 4 T-cell deficient nude mice (2 male, 2 female) bearing orthotopic HT29 tumor implants received 0.1 ml of 20 mM M3N-PEG-2NI via I.V. or I.P. injections. The remaining 4 T-cell deficient nude mice (2 male, 2 female) received 0.1 mL of CPE (FIG. 7) Body weight of mice was monitored every week, until significant body weight change occurred. Then, body weight was measured every other day until day 24. All 8 mice were euthanized on day 24. The mice were dissected and their major organs collected. Special attention was taken in examination of livers since liver metastasis is common in orthotopic colon cancer models.
# [4] = system: subcutaneous LNCaP prostate cancer cell explants; experiment: Immunofluorescence analysis of 2-nitroimidazole induced protein adducts in mouse tumor explants; assay type: in vivo, nude mice; conditions: daily intravenous tail vein injection for three weeks
# Procedure: Immunofluorescence analysis of 2-nitroimidazole induced protein adducts in mouse tumor explants. Nude mice with subcutaneous LNCaP prostate cancer cell explants were administered Hydroxyprobe-1, M3N or M3N-PEG-2NI for three weeks by daily intravenous tail vein injection with an additional injection 3 hours prior to euthanization. Tumors were removed from the euthanized mice by dissection and incubated in 30% sucrose/PBS overnight at 4° C. Excess sucrose was removed and the tissue was incubated in 30% sucrose/PBS:OCT (1:1) for 1 hour at room temperature. Afterward the tissue was frozen in 100% OCT. Frozen sections of […] were prepared and fixed in 4% PFA/PBS for 1 hour at room temperature. The sections were blocked overnight at 4° C. with 5% goat serum/PBS or at room temperature for 1 hour and then incubated with Hydroxyprobe-1 rabbit antiserum (1:200) overnight at 4° C. After three washes with PBS, the secondary antibody, mouse anti rabbit-FITC (1:1000) was added for 1 hour at room temperature. The sections were mounted using Vectashield and fluorescently imaged.
# [5] = system: 786-0 human renal adenocarcinoma cells; experiment: MTT cell viability assay, 3 days; assay type: cell-based; conditions: Homo sapiens, 786-0, 72 h, normoxic conditions, 1% DMSO
# Procedure: (§1) Additional cell culture, drug treatment and cell viability assays. HT29 human colorectal carcinoma cells, 786-0 human renal adenocarcinoma cells and Hep3B human hepatocellular carcinoma cells were obtained from ATCC and maintained in culture according to their recommendations. […] After the treatment period viability of the cells was determined with the MTT cell viability assay and dose response curves were generated using the calculated values of the percentage viable cells relative to the vehicle control.
# [6] = system: Hep3B human hepatocellular carcinoma cells; experiment: MTT cell viability assay, 3 days; assay type: cell-based; conditions: Homo sapiens, Hep3B, 72 h, normoxic conditions, 1% DMSO
# Procedure: as §1
# [7] = system: HT29 human colorectal carcinoma cells; experiment: MTT cell viability assay, 3 days; assay type: cell-based; conditions: Homo sapiens, HT-29, 72 h, normoxic conditions, 1% DMSO
# Procedure: as §1
# [8] = 0.1 ml of 20 mM I.V. or I.P., three weeks, euthanized day 24, listed as M3N-PEG-2NI
smiles,measurement,setting,value
"COc1ccc(C[C@H](C)[C@H](C)Cc2ccc(OC)c(OCCOCCOCCOCCn3ccnc3[N+](=O)[O-])c2)cc1OC (racemic) [Compound 7d, (±)-(2R,3S)-4-(3,4-Dimethoxyphenyl)-1-[4-methoxy-3-[12-(2-nitro-1H-imidazol-1-yl)-1,4,7,10-tetraoxadodecanyl]phenyl]-2,3-dimethylbutane]",Ability of HT29 cells to replicate after treatment (plating efficiency),[1],unable to replicate
same,solubility at 1 h,[2],13.2 µg/mL
same,Mean Primary Tumor and Mass,"[3]; 0.1 ml of 20 mM I.V. or I.P., three weeks, euthanized day 24, listed as M3N-PEG-2N",300 ± 140 mg
same,Mean Abdominal Cavity Tumor Mass,[3]; [8],75 ± 50 mg
same,Mean Primary Tumor and Mass,[3]; [8],300 ± 140 mg
same,Body Weight Increase,"[3]; 0.1 ml of 20 mM I.V. or I.P., to day 24",11.3%
same,Mean Total Tumor Load,"[3]; primary tumor plus total tumor mass, 0.1 ml of 20 mM I.V. or I.P., day 24, listed as M3N-PEG-2NI",375 ± 150 mg
same,Mice that developed liver metastasis,"[3]; treated group of 4 mice, day 24",1 of the 4
same,Peritoneal tumors,"[3]; treated group, mice 5 (female) and 7 (male)",no peritoneal tumors
same,Peritoneal tumors,"[3]; treated group, mice 6 (female) and 8 (male)","a single, small peritoneal tumor"
same,"Tumor masses surrounding the kidneys and ovaries, weight each","[3]; treated group, mouse 5",< 100 mg
same,"Tumor surrounding the ovaries, weight","[3]; treated group, mouse 6",< 100 mg
same,Protein adducts in tumor sections by immunofluorescence,[4],Protein-adducts were also found
same,IC50,[5],10 to 14 µM
same,IC50,[6],4 µM
same,IC50,[7],4 to 6 µM
